Format in all cases: biochemical
In one assay the target is PI3Kγ (p120γ)(h) (Homo sapiens, UniProt P48736). In words: Assay for phosphatidylinositol 3-kinase gamma (PI3Kγ) activity, PI3K-HTRF kit. As to conditions: TR-FRET; enzyme 1.45 μg/ml, 10 μM PIP2, 10 μM ATP. The method in brief: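 Recombinant PI3Kγ (1.45 μg/ml final) preincubated ~10 min with compound, then reacted with 10 μM PIP2 and 10 μM ATP for 90 min at room temperature. PIP3 detected by HTRF (biotin-PIP3/Eu-PH domain/APC), 665/620 nm ratio after 6 h; IC50 from inhibition relative to controls.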
A general note: Time-resolved FRET reads energy transfer from a long-lived donor to a nearby acceptor.

The next assay has as its target PI3Kα (p110α/p85α)(h) (Homo sapiens, UniProt P42336). Kind of assay: Assay for phosphatidylinositol 3-kinase alpha (PI3Kα) activity, PI3K-HTRF kit. As to conditions: TR-FRET; enzyme 0.3625 μg/ml, 10 μM PIP2, 10 μM ATP.
For the next assay, the target named is PI3K β (p110β/p85α)(h) (Homo sapiens, UniProt P42338). In words: Assay for phosphatidylinositol 3-kinase beta (PI3Kβ) activity, PI3K-HTRF kit. As to conditions: TR-FRET; enzyme 0.725 μg/ml, 10 μM PIP2, 10 μM ATP.
The next assay concerns the target PI3Kδ (p110δ/p85α)(h) (Homo sapiens, UniProt O00329). In words: Assay for phosphatidylinositol 3-kinase delta (PI3Kδ) activity, PI3K-HTRF kit. Particulars: TR-FRET; enzyme 0.725 μg/ml, 10 μM PIP2, 10 μM ATP.

PI3Kδ (p110δ/p85α)(h), sequence (O00329 whole entry): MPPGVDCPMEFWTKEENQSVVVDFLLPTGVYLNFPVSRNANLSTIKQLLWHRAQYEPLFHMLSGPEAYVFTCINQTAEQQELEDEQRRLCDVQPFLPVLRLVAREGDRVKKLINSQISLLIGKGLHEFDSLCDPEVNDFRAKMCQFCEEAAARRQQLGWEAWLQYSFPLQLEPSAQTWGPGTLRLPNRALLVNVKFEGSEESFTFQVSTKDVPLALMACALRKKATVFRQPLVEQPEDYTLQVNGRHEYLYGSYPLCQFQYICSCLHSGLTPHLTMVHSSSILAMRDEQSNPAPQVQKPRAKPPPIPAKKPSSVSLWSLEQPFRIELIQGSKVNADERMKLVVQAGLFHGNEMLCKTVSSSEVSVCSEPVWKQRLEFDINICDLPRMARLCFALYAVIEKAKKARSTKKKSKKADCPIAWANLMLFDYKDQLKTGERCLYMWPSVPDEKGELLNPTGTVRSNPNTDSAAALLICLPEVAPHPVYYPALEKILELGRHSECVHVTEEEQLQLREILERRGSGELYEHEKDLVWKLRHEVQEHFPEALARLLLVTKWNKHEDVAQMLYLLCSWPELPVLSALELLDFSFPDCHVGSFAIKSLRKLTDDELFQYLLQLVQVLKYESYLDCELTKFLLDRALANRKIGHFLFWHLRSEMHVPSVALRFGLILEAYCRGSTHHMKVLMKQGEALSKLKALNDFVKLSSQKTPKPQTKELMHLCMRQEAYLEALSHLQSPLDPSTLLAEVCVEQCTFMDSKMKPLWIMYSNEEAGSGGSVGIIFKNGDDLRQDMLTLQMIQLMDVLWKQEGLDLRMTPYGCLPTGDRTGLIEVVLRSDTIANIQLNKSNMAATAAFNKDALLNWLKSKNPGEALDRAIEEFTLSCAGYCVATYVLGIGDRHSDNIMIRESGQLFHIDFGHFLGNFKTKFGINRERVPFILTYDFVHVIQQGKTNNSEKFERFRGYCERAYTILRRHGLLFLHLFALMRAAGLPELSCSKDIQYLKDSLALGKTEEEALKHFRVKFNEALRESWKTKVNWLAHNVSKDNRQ
PI3Kδ (p110δ/p85α)(h), sequence (P27986 whole entry partner): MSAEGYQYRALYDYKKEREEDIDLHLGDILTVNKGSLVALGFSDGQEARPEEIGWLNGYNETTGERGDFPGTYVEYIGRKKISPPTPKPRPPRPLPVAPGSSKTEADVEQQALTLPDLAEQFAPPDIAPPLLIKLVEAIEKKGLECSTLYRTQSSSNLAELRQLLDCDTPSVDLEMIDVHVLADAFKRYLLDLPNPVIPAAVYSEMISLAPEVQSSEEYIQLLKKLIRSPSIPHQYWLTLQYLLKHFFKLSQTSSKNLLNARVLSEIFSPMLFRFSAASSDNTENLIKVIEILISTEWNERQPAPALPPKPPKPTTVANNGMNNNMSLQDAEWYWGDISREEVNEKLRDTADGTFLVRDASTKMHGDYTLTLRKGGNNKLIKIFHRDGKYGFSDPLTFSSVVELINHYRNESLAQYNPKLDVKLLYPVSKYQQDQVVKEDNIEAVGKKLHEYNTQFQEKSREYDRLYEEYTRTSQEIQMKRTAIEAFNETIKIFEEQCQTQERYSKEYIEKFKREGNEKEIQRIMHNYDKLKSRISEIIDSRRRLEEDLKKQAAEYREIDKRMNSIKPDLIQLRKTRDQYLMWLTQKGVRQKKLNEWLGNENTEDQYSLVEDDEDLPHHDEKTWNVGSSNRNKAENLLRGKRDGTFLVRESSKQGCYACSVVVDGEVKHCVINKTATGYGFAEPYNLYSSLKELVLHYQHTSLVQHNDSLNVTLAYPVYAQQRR
PI3K β (p110β/p85α)(h), sequence (P42338 whole entry): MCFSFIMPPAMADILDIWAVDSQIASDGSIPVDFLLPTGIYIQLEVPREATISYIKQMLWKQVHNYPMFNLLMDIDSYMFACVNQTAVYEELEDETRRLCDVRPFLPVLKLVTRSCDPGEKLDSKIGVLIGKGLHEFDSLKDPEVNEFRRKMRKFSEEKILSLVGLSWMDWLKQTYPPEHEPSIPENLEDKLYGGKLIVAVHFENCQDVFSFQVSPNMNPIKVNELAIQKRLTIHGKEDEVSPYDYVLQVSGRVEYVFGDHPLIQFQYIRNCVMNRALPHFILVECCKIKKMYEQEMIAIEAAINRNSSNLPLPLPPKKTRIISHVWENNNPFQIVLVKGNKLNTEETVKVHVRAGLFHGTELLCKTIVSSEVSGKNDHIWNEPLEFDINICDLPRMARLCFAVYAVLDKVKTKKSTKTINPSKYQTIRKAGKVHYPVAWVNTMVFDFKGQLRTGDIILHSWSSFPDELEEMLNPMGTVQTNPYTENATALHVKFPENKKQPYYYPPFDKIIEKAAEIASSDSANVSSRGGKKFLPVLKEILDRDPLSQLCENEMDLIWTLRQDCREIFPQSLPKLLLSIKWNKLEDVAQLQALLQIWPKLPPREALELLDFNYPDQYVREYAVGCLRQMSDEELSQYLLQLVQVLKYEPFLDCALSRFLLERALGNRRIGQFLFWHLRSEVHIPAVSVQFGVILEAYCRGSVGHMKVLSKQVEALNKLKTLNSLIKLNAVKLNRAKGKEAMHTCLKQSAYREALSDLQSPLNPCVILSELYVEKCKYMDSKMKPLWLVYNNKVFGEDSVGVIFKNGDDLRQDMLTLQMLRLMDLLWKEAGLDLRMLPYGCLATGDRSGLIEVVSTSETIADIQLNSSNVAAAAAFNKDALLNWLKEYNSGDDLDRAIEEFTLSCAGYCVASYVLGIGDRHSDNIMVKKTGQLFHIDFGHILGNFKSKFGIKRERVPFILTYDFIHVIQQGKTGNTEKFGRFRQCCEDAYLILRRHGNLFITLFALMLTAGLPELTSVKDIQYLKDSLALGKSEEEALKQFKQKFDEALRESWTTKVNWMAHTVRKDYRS
PI3K β (p110β/p85α)(h), sequence (P27986 whole entry partner): as the sequence (P27986 whole entry partner) above
PI3Kα (p110α/p85α)(h), sequence (P42336 whole entry): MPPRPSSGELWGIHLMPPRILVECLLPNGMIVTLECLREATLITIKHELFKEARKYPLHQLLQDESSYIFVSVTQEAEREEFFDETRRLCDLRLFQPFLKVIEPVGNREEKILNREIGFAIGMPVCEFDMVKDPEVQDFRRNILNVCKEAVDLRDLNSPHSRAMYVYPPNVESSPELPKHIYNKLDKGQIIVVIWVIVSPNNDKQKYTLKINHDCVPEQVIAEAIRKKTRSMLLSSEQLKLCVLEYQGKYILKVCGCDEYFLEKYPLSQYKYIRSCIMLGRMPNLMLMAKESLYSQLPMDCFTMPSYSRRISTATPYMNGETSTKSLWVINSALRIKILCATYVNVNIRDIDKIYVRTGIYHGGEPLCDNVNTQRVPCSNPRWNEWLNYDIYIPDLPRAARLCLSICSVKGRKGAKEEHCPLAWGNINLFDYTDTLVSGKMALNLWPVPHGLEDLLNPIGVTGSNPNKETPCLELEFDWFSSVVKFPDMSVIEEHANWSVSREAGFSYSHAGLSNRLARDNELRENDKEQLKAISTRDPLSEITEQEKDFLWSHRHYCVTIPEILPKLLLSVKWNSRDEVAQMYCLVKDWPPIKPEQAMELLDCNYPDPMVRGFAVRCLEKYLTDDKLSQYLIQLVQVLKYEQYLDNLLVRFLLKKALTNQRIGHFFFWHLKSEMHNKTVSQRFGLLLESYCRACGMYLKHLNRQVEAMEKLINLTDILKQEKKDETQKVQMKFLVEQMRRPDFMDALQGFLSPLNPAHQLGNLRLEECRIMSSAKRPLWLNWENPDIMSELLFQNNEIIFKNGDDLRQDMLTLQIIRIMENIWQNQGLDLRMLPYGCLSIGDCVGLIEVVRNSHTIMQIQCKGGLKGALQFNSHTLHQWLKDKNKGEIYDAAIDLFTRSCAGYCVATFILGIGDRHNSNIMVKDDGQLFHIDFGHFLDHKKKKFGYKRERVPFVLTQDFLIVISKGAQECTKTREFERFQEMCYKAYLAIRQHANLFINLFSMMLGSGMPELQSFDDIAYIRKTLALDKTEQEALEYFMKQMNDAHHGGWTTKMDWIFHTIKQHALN
PI3Kα (p110α/p85α)(h), sequence (P27986 whole entry partner): as the sequence (P27986 whole entry partner) above
PI3Kγ (p120γ)(h), sequence (P48736 whole entry, the tested form may be a part): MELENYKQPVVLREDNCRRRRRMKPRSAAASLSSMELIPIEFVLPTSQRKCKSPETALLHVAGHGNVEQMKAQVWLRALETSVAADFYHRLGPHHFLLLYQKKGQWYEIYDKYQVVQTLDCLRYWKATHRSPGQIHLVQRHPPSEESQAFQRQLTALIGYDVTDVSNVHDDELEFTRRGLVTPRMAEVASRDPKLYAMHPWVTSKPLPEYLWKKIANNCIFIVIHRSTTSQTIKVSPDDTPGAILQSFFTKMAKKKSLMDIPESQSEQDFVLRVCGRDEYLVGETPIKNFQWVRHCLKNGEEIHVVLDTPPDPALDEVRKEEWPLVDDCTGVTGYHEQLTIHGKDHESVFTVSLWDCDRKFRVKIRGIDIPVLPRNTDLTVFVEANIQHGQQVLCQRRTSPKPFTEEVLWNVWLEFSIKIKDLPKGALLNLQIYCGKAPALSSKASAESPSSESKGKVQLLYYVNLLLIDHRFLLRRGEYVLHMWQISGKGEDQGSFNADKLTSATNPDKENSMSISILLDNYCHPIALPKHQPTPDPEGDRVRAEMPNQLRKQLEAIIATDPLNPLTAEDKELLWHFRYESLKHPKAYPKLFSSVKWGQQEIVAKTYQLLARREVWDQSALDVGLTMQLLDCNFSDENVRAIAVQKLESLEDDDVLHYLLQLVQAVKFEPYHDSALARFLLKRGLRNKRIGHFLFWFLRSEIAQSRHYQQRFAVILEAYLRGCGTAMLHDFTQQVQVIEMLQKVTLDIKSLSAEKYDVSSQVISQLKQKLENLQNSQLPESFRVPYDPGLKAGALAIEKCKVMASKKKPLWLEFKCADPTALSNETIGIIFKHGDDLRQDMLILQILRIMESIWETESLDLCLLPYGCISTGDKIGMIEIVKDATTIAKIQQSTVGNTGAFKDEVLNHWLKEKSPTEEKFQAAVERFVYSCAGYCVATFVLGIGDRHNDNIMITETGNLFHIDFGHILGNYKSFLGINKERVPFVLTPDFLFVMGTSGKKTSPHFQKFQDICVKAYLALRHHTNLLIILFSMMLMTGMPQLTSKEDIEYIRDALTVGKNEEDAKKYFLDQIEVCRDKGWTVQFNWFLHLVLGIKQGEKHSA

By IC50 is commonly meant the point on the concentration scale where inhibition reaches its midpoint. A higher IC50 goes with a need for much substance. `CN(C)S(=O)(=O)c1ccc(-c2cncc3cc(/C=C4\SC(=S)NC4=O)oc23)cc1OC(F)(F)F` [Example 339, (Z)—N,N-Dimethyl-4-[2-{(4-oxo-2-thioxothiazolidin-5-ylidene)methyl}furo[3,2-c]pyridin-7-yl]-2-(trifluoromethoxy)benzenesulfonamide]: the IC50 is 16 nM at PI3Kγ (p120γ)(h), 8 nM against PI3Kα (p110α/p85α)(h), 443 nM on PI3K β (p110β/p85α)(h) and 188 nM against PI3Kδ (p110δ/p85α)(h).
With `O=C1NC(=S)S/C1=C\c1cc2cncc(-c3cc(Cl)c(S(=O)(=O)N4CCOCC4)c(Cl)c3)c2o1` [Example 343, (Z)-5-([7-{3,5-Dichloro-4-(morpholinosulfonyl)phenyl}furo[3,2-c]pyridin-2-yl]methylene)-2-thioxothiazolidin-4-one], the IC50 against PI3Kγ (p120γ)(h) was 4 nM; against PI3Kα (p110α/p85α)(h), 19 nM; at PI3K β (p110β/p85α)(h), above 10000 nM; at PI3Kδ (p110δ/p85α)(h) it was 53 nM.
For the compound `CC(C)NS(=O)(=O)c1c(Cl)cc(-c2cncc3cc(/C=C4\SC(=S)NC4=O)oc23)cc1Cl` [Example 345, (Z)-2,6-Dichloro-N-isopropyl-4-[2-{(4-oxo-2-thioxothiazolidin-5-ylidene)methyl}furo[3,2-c]pyridin-7-yl]benzenesulfonamide], the IC50 against PI3Kγ (p120γ)(h) was determined as 4 nM; against PI3Kα (p110α/p85α)(h), 11 nM; against PI3K β (p110β/p85α)(h) it was 3860 nM; against PI3Kδ (p110δ/p85α)(h), 89 nM.
Consider `COC(=O)c1cc(F)cc(-c2cncc3cc(/C=C4\SC(=S)NC4=O)oc23)c1` [Example 351, (Z)-Methyl 3-fluoro-5-[2-{(4-oxo-2-thioxothiazolidin-5-ylidene)methyl}furo[3,2-c]pyridin-7-yl]benzoate], for which the half-inhibitory concentration (IC50) was 9 nM on PI3Kγ (p120γ)(h), 4 nM against PI3Kα (p110α/p85α)(h), above 10000 nM at PI3K β (p110β/p85α)(h) and above 10000 nM against PI3Kδ (p110δ/p85α)(h).
For `Nc1ccc(-c2cncc3cc(/C=C4\SC(=S)NC4=O)oc23)cc1C(F)(F)F` [Example 361, (Z)-5-([7-{4-Amino-3-(trifluoromethyl)phenyl}furo[3,2-c]pyridin-2-yl]methylene)-2-thioxothiazolidin-4-one], the IC50 stood at 10 nM at PI3Kγ (p120γ)(h), 41 nM on PI3Kα (p110α/p85α)(h), 1430 nM on PI3K β (p110β/p85α)(h) and 924 nM on PI3Kδ (p110δ/p85α)(h).
The matching figures for `COc1ccccc1NC(=O)c1cncc2cc(/C=C3\SC(=O)NC3=O)oc12` [Example 412, (Z)-2-{(2,4-Dioxothiazolidin-5-ylidene)methyl}-N-(2-methoxyphenyl)furo[3,2-c]pyridine-7-carboxamide]: 182 nM, 17 nM, 869 nM and 205 nM.
The matching figures for `O=C1NC(=O)/C(=C/c2cc3cncc(C(=O)NC4CCCCC4)c3o2)S1` [Example 422, (Z)—N-Cyclohexyl-2-{(2,4-dioxothiazolidin-5-ylidene)methyl}furo[3,2-c]pyridine-7-carboxamide]: 204 nM, 31 nM, 1230 nM and 1140 nM.
Take `COc1ccc(NC(=O)c2cncc3cc(/C=C4\SC(=S)NC4=O)oc23)cc1` [Example 425, (Z)—N-(4-Methoxyphenyl)-2-{(4-oxo-2-thioxothiazolidin-5-ylidene)methyl}furo[3,2-c]pyridine-7-carboxamide]: the IC50 at PI3Kγ (p120γ)(h) came out at 51 nM; against PI3Kα (p110α/p85α)(h) it was 11 nM; on PI3K β (p110β/p85α)(h), 1140 nM; against PI3Kδ (p110δ/p85α)(h), 8330 nM.
On the same counts, the results for `O=C1NC(=S)S/C1=C\c1cc2cncc(C(=O)NCc3ccc(Cl)cc3)c2o1` [Example 427, (Z)—N-(4-Chlorobenzyl)-2-{(4-oxo-2-thioxothiazolidin-5-ylidene)methyl}furo[3,2-c]pyridine-7-carboxamide] are 134 nM, 62 nM, 250 nM and 1170 nM.
On the same counts, the results for `O=C1NC(=O)/C(=C/c2cc3cncc(C#CC4CCCC4)c3o2)S1` [Example 435, (Z)-5-[{7-(Cyclopentylethynyl)furo[3,2-c]pyridin-2-yl}methylene]thiazolidine-2,4-dione] are 48 nM, 58 nM, 4340 nM and 4280 nM.
As for `COc1ccc(C#Cc2cncc3cc(/C=C4\SC(=O)NC4=O)oc23)cc1` [Example 437, (Z)-5-([7-{(4-Methoxyphenyl)ethynyl}furo[3,2-c]pyridin-2-yl]methylene)thiazolidine-2,4-dione], the 50% inhibitory concentration (IC50) on PI3Kγ (p120γ)(h) was 9 nM; against PI3Kα (p110α/p85α)(h) it was 8 nM; on PI3K β (p110β/p85α)(h), above 10000 nM; at PI3Kδ (p110δ/p85α)(h), above 10000 nM.
With `O=C1NC(=O)/C(=C/c2cc3cncc(C#Cc4cccc(C(F)(F)F)c4)c3o2)S1` [Example 441, (Z)-5-{(7-[{3-(Trifluoromethyl)phenyl}ethynyl]furo[3,2-c]pyridin-2-yl)methylene}thiazolidine-2,4-dione], the IC50 at PI3Kγ (p120γ)(h) was 10 nM; against PI3Kα (p110α/p85α)(h), 2 nM; at PI3K β (p110β/p85α)(h), above 10000 nM; against PI3Kδ (p110δ/p85α)(h), above 10000 nM.
As for `COc1cc(C#Cc2cncc3cc(/C=C4\SC(=O)NC4=O)oc23)cc(OC)c1` [Example 450, (Z)-5-([7-{(3,5-Dimethoxyphenyl)ethynyl}furo[3,2-c]pyridin-2-yl]methylene)thiazolidine-2,4-dione], the IC50 against PI3Kγ (p120γ)(h) was 13 nM; on PI3Kα (p110α/p85α)(h), 8 nM; on PI3K β (p110β/p85α)(h), 4650 nM; against PI3Kδ (p110δ/p85α)(h), above 10000 nM.
On the same counts, the results for `Cc1cc(C#Cc2cncc3cc(/C=C4\SC(=O)NC4=O)oc23)ccc1F` [Example 453, (Z)-5-([7-{(4-Fluoro-3-methylphenyl)ethynyl}furo[3,2-c]pyridin-2-yl]methylene)thiazolidine-2,4-dione] are 12 nM, 25 nM, 5070 nM and 801 nM.
The matching figures for `Cc1ccccc1C#Cc1cncc2cc(/C=C3\SC(=O)NC3=O)oc12` [Example 454, (Z)-5-[{7-(o-Tolylethynyl)furo[3,2-c]pyridin-2-yl}methylene]thiazolidine-2,4-dione]: 7 nM, 1 nM, 466 nM and 143 nM.
The matching figures for `COc1ccc(C#Cc2cncc3cc(/C=C4\SC(=O)NC4=O)oc23)cc1OC` [Example 469, (Z)-5-([7-{(3,4-Dimethoxyphenyl)ethynyl}furo[3,2-c]pyridin-2-yl]methylene)thiazolidine-2,4-dione]: 17 nM, 2 nM, 5090 nM and 37 nM.
For the compound `O=C1NC(=S)S/C1=C\c1cc2cncc(C#CC3CC3)c2o1` [Example 475, (Z)-5-[{7-(Cyclopropylethynyl)furo[3,2-c]pyridin-2-yl}methylene]-2-thioxothiazolidin-4-one], the IC50 against PI3Kγ (p120γ)(h) is 10 nM; on PI3Kα (p110α/p85α)(h), 68 nM; against PI3K β (p110β/p85α)(h) it was above 10000 nM; at PI3Kδ (p110δ/p85α)(h), above 10000 nM.
As to `CCOC(C#Cc1cncc2cc(/C=C3\SC(=S)NC3=O)oc12)OCC` [Example 483, (Z)-5-[{7-(3,3-Diethoxypropyn-1-yl)furo[3,2-c]pyridin-2-yl}methylene]-2-thioxothiazolidin-4-one], the IC50 against PI3Kγ (p120γ)(h) worked out at 33 nM; at PI3Kα (p110α/p85α)(h), 23 nM; against PI3K β (p110β/p85α)(h), 184 nM; on PI3Kδ (p110δ/p85α)(h), 113 nM.
For the compound `COc1ccccc1C#Cc1cncc2cc(/C=C3\SC(=S)NC3=O)oc12` [Example 486, (Z)-5-([7-{(2-Methoxyphenyl)ethynyl}furo[3,2-c]pyridin-2-yl]methylene)-2-thioxothiazolidin-4-one], the 50% inhibitory concentration (IC50) against PI3Kγ (p120γ)(h) was 14 nM; at PI3Kα (p110α/p85α)(h), 4 nM; against PI3K β (p110β/p85α)(h), above 10000 nM; against PI3Kδ (p110δ/p85α)(h), above 10000 nM.
On to `Cc1ccccc1C#Cc1cncc2cc(/C=C3\SC(=S)NC3=O)oc12` [Example 498, (Z)-2-Thioxo-5-[{7-(o-tolylethynyl)furo[3,2-c]pyridin-2-yl}methylene]thiazolidin-4-one], for which the IC50 at PI3Kγ (p120γ)(h) came out at 7 nM; on PI3Kα (p110α/p85α)(h), 2 nM; at PI3K β (p110β/p85α)(h) it was 2270 nM; against PI3Kδ (p110δ/p85α)(h), 618 nM.
On to `COc1ccc(C#Cc2cncc3cc(/C=C4\SC(=S)NC4=O)oc23)cc1OC` [Example 512, (Z)-5-([7-{(3,4-Dimethoxyphenyl)ethynyl}furo[3,2-c]pyridin-2-yl]methylene)-2-thioxothiazolidin-4-one], for which the IC50 came to 17 nM against PI3Kγ (p120γ)(h), 2 nM against PI3Kα (p110α/p85α)(h), 82 nM on PI3K β (p110β/p85α)(h) and 73 nM against PI3Kδ (p110δ/p85α)(h).
On the same counts, the results for `N#Cc1ccccc1C#Cc1cncc2cc(/C=C3\SC(=S)NC3=O)oc12` [Example 513, (Z)-2-([2-{(4-Oxo-2-thioxothiazolidin-5-ylidene)methyl}furo[3,2-c]pyridin-7-yl]ethynyl)benzonitrile] are 11 nM, 4 nM, 715 nM and 74 nM.
On the same counts, the results for `O=C1NC(=O)/C(=C/c2cc3cncc(C#Cc4ccccc4C(F)(F)F)c3o2)S1` [Example 526] are 23 nM, 6 nM, 1210 nM and 33 nM.
On the same counts, the results for `O=C1NC(=O)/C(=C/c2cc3cncc(C#Cc4ccsc4)c3o2)S1` [Example 528, (Z)-5-[{7-(Thiophen-3-ylethynyl)furo[3,2-c]pyridin-2-yl}methylene]thiazolidine-2,4-dione] are 24 nM, 8 nM, 638 nM and 92 nM.

Values taken from patent US9493478B2, “Fused ring compound containing furan or salt thereof and pharmaceutical composition comprising same” (YUHAN CORPORATION, priority 2012, dated 2016).
